Results from patent US20220378744A1, “COMPOUNDS FOR TREATING PROLIFERATOR-ACTIVATED RECEPTORS (PPAR) MEDIATED DISEASES OR CONDITIONS” (MEDIPURE PHARMACEUTICALS INC., priority 2021, published 2022).
Each block holds one compound with its values, some of them ahead of it.

Key:
[1] = test system: IMQ-induced psoriasis in BALB/c mice; assay: IMQ-induced psoriasis model in BALB/c mice, topical creams, PASI score; format: in vivo; settings: 0.05% w/w cream, once daily day 10 to day 16, FIG. 11
Procedure: The animal experiment is conducted in accordance with the Guidelines for the Institutional Animal Care and Use Committee. Both male and female BALB/c mice from Rodenta Bioserve, India, at 7-8 weeks of age and 20-25 gram of body weight are housed in a laboratory environment with constant temperature (24.0±1.0° C.) and relative humidity (45.0-55.0%) on a 12 h light/dark cycles. These animals are provided free access to unlimited amounts of food and water during the entire experiment. The animals are divided into 12 groups of 8 mice each and shaved on the back on day 0 for an area of 2×2 cm . Human-like psoriasis in mice is induced by topical application of 5% Imiquimod (IMQ) procured from AK Scientific, USA, and formulated in the base cream at desired percentages in-house, in shaved area and right ear (0.5×0.5 cm). […] Vehicle, clobetasol propionate (CP, Sigma. 0.05% w/w; positive control), test creams, and CBD (Ilesol Pharmaceuticals), respectively, is applied topically on both the shaved back (80 mg cream) and the right ear (20 mg cream) of mice, once daily from day 10 to day 16. The study ends at day 17. At stated time points the severity of psoriasis is evaluated using the PASI score (Psoriasis Area Severity Index: sum of erythema, scaling and thickening, scored independently from 0 to 4 for each mouse; max PASI score=12). Tissue and blood samples are collected for histopathology, biochemistry and immunoassay from each animal at various points.

human PPARα (NR1C1) = target: T1, human PPARα (NR1C1) (Homo sapiens, UniProt Q07869); assay: Cell-based human PPARα transactivation (nuclear receptor reporter) assay; settings: for activating PPARα: at 10 μM
T1 sequence (Q07869 1-468): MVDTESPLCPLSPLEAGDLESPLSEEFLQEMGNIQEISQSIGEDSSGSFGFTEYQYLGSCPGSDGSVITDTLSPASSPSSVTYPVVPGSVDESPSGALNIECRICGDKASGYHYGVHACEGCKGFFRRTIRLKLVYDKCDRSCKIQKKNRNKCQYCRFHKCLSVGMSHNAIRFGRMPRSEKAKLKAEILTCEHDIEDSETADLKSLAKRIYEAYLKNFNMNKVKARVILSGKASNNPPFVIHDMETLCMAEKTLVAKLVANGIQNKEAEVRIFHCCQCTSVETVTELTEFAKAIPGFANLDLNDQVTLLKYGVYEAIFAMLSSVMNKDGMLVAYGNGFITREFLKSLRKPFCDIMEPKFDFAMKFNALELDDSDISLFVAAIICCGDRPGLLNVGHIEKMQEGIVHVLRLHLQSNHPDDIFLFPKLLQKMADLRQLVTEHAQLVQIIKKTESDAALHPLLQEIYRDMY
Procedure: (§1) The assay was performed using cell-based human PPAR nuclear receptor reporter assay kits (NR1C1 for PPARα; NR1C2 for PPARδ/β, and NR1C3 for PPARγ, Indigo Biosciences) by following the manufacturer's instruction. In brief, PPAR reporter cells were added to CRM medium (Indigo Biosciences), seeded into wells of a 96-well culture plate and incubated for 5 hours in a cell culture incubator at 37° C. with 5% CO2. The medium was then removed, and the cells were treated with test compounds at different concentrations in CSM medium (Indigo Biosciences) for 24 h inside the incubator. […] DMSO (Sigma) at 0.1% (v/v) was used as negative baseline control (C). Each treatment was tested in duplicate wells. At the end point of the experiments, the treatment medium was discarded and Luciferase Detection Reagent (Indigo Biosciences) was added. Following a 10-minute rest period, the intensity of light emission (in units of “Relative Light Units; RLU”) from each assay well was quantified using a plate-reading luminometer (Synergy H1 plate reader, BioTek). In addition, live cell multiplex assay (Indigo Biosciences) was combined with the activation assays to detect potential cytotoxic effect, if any, of the test chemicals to normalize the signals as per manufacturer's instruction.

human PPARγ (NR1C3) = target: T2, human PPARγ (NR1C3) (Homo sapiens, UniProt P37231); assay: Cell-based human PPARγ transactivation (nuclear receptor reporter) assay; settings: for activating PPARγ: at 1 μM
T2 sequence (P37231 1-505): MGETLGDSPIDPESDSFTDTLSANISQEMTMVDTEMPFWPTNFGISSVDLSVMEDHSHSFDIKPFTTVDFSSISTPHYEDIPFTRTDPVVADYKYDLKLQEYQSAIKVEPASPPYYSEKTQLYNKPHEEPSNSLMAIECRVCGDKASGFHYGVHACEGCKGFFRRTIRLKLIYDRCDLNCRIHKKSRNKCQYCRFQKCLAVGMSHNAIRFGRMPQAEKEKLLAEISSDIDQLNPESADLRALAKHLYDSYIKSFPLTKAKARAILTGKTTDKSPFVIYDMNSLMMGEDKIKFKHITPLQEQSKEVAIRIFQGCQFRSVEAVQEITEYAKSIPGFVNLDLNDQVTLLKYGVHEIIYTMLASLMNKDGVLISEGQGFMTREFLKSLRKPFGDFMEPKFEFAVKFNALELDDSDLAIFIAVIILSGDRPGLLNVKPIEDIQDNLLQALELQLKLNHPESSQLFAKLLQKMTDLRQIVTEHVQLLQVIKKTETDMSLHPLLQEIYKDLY
Procedure: as §1

Structure (SMILES): CCC(=O)O[C@]1(C(=O)CCl)[C@@H](C)C[C@H]2[C@@H]3CCC4=CC(=O)C=C[C@]4(C)[C@@]3(F)[C@@H](O)C[C@@]21C [CP, clobetasol propionate, reference compound]
reducing the PASI score [1]: effective

Structure (SMILES): CCCc1cc(C(=O)c2ccc(-c3ccccc3)cc2)ccc1OCCOc1ccc2c(cnn2C(OCC)C(=O)O)c1 (stereo not shown) [KV 196, 2-(5-(2-(4-([1,1′-biphenyl]-4-carbonyl)-2-propylphenoxy)ethoxy)-1H-indazol-1-yl)-2-ethoxyacetic acid]
activating PPARγ (human PPARγ (NR1C3)): highly effective | activating PPARα (human PPARα (NR1C1)): not effective

Structure (SMILES): CCCc1cc(C(=O)c2ccc(F)cc2)ccc1OCCOc1ccc2c(cnn2C(OCC)C(=O)OCC)c1 (stereo not shown) [KV-163A, ethyl 2-ethoxy-2-(5-(2-(4-(4-fluorobenzoyl)-2-propylphenoxy)ethoxy)-1H-indazol-1-yl)acetate]
activating PPARγ (human PPARγ (NR1C3)): highly effective | activating PPARα (human PPARα (NR1C1)): not effective

Structure (SMILES): CCCc1cc(C(=O)c2ccc(-c3ccccc3)cc2)ccc1OCCOc1ccc2c(cnn2C(OCC)C(=O)OCC)c1 (stereo not shown) [KV-194A, Ethyl 2-(5-(2-(4-([1,1,′-biphenyl]-4-carbonyl)-2-propylphenoxy)ethoxy)-1H-indazol-1-yl)-2-ethoxyacetate]
activating PPARγ (human PPARγ (NR1C3)): highly effective | activating PPARα (human PPARα (NR1C1)): not effective

Next, values leading:

PPARα transactivation: concentration at which (or starting at which) active (human PPARα (NR1C1); luciferase reporter cells, 24 h treatment, FIG. 1): 0.001 µM
Structure (SMILES): Cc1nc(-c2ccc(C(F)(F)F)cc2)sc1C(=O)NCc1ccc(OC(C)(C)C(=O)O)cc1 [GW590375, reference compound]

activating PPARγ (human PPARγ (NR1C3)): highly effective | activating PPARα (human PPARα (NR1C1)): not effective
Structure (SMILES): CCCc1cc(C(=O)c2ccc(F)cc2)ccc1OCCCOc1ccc2c(cnn2C(OCC)C(=O)OC)c1 (stereo not shown) [KV-157, methyl 2-ethoxy-2-(5-(3-(4-(4-fluorobenzoyl)-2 propylphenoxy)propoxy)-1H-indazol-1-yl)acetate]

activating PPARγ (human PPARγ (NR1C3)): highly effective | activating PPARα (human PPARα (NR1C1)): not effective
Structure (SMILES): CCCc1cc(C(=O)c2ccc(-c3ccccc3)cc2)ccc1OCCCOc1ccc2c(cnn2C(OCC)C(=O)OCC)c1 (stereo not shown) [KV-165, ethyl 2-(5-(3-(4-([1,1′-biphenyl]-4-carbonyl)-2-propylphenoxy)propoxy)-1H-indazol-1-yl)-2-ethoxyacetate]

activating PPARγ (human PPARγ (NR1C3)): highly effective | activating PPARα (human PPARα (NR1C1)): not effective
Structure (SMILES): CCCc1cc(C(=O)c2ccc(-c3ccccc3)cc2)ccc1OCCCOc1ccc2c(cnn2C(OCC)C(=O)O)c1 (stereo not shown) [KV-180, 2-(5-(3-(4-([1.1′-biphenyl]-4-carbonyl)-2-propylphenoxy)propoxy)-1H-indazol-1-yl)-2-ethoxyacetic acid]

concentration at which PPARγ was activated (human PPARγ (NR1C3)): 10 µM | activating PPARα (human PPARα (NR1C1)): not effective
Structure (SMILES): CCCc1cc(C(=O)c2ccc(F)cc2)ccc1OCCOc1ccc2c(cnn2C(OCC)C(=O)O)c1 (stereo not shown) [KV-192, 2-ethoxy-2-(5-(2-(4-(4-fluorobenzoyl)-2-propylphenoxy)ethoxy)-1H-indazol-1-yl)acetic acid]
